The target in one assay is T1, ferroportin (Fpn) (Mus musculus, UniProt Q9JHI9).
T1 construct: host or cells: J774 mouse macrophage cell line, Fe(III)-NTA induced
T1 sequence (Q9JHI9 1-570): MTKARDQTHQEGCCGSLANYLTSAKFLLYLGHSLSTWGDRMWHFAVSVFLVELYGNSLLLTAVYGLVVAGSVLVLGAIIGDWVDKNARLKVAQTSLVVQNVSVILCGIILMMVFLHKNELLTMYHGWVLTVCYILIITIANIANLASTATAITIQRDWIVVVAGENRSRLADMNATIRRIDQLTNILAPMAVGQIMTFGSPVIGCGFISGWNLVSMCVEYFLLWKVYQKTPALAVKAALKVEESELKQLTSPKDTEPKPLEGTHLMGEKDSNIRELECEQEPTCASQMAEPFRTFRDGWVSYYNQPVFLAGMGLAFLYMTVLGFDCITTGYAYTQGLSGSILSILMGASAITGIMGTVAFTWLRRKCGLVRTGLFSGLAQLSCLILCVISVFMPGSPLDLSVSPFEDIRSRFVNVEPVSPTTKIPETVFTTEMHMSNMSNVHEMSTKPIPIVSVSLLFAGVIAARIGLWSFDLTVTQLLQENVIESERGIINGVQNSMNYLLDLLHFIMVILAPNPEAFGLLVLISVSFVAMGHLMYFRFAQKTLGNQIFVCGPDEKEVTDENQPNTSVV
The assay can be described thus: Hepcidin Internalization Assay (J774). To be noted: average of multiple measurements; inhibition of TMR-hepcidin (25 nM) internalization into J774 cells; read-out: J774 IC50. The format is cell-based. The text has this:
This cellular assay allows quantification of the binding of hepcidin to ferroportin (Fpn) through microscopic detection of internalization of a fluorescently labeled hepcidin into J774 cells. […] Binding of hepcidin to Fpn triggers internalization and degradation of both hepcidin and Fpn. However, the TMR (6-carboxytetramethylrhodamine) fluorophore attached to hepcidin remains associated with the cell after degradation of the hepcidin peptide backbone. Therefore, microscopic detection of ceH associated TMR fluorescence is a measure of hepcidin binding to Fpn and internalization of hepcidin and Fpn. If TMR-hepcidin is prevented from binding to Fpn, cellular TMR fluorescence remains low (Dürrenberger et al, 2013). The effect of small molecular weight Fpn inhibitor compounds in this assay was evaluated in vitro as described below.
J774 cells, harvested from ca. 80% confluent cultures, were plated at 8×10^5 cells/ml in complete medium (DMEM, 10% FBS, 1% Penicillin-Streptomycin) containing 200 μM Fe(III)NTA (nitrilotriacetic acid), 100 μl per well of 96 well MicroClear plates (Greiner; Cat. 655090) and grown at 37° C. with 5% CO2. After overnight incubation, cells were washed 3 times with pre-warmed DMEM w/o phenol red, 30 μl/well of DMEM w/o phenol red was added after the final wash and 10 μl/well of dilution series of test compounds were added in triplicates. […] Cells were incubated in a total volume of 50 μl at 37° C. with 5% CO2 for 2 hours, then Hoechst 33342 dye was added to a final concentration of 0.5 μg/ml to stain nuclei and further incubated for 10 min. at 37° C. with 5% CO2. Cells were washed 3 times with PBS and fixed in 100 μl of 4% paraformaldehyde in PBS for 15 min. at room temperature. After removal of the paraformaldehyde solution, cells were washed 3 times with PBS leaving 100 μl per well and the plates were sealed with foil plate seal. TMR (530-550 nm excitation/575-625 nm emission/400 ms exposure time) and Hoechst 33342 (360-370 nm excitation/420-460 nm emission/10 ms exposure time) fluorescence images were acquired using a ScanR plate imager (Olympus) with a 20× high NA objective. Four pictures were acquired per well and fluorescence channel covering ca. 1500 cells per well. The acquired image data was analysed with the ScanR image analysis software. Image analysis included detection of nuclei (Hoechst 33342 fluorescence), identification of cell-associated regions, application of a virtual channel and thresholding for rolling-ball-type background reduction, followed by application of the Sum(Mean) algorithm to measure the TMR fluorescence associated with cells as a quantitative measure for internalized TMR-hepcidin. IC50 values were calculated with the Sum(Mean) raw data using “log(inhibitor) vs. response” curve fitting of Prism 5 software (GraphPad Software Inc., version 5.02).

For the next assay, the target named is T2, human Fpn (Homo sapiens, UniProt Q9NP59).
T2 construct: FLAG (C); made in house; host or cells: Pichia pastoris
T2 sequence (Q9NP59 1-571): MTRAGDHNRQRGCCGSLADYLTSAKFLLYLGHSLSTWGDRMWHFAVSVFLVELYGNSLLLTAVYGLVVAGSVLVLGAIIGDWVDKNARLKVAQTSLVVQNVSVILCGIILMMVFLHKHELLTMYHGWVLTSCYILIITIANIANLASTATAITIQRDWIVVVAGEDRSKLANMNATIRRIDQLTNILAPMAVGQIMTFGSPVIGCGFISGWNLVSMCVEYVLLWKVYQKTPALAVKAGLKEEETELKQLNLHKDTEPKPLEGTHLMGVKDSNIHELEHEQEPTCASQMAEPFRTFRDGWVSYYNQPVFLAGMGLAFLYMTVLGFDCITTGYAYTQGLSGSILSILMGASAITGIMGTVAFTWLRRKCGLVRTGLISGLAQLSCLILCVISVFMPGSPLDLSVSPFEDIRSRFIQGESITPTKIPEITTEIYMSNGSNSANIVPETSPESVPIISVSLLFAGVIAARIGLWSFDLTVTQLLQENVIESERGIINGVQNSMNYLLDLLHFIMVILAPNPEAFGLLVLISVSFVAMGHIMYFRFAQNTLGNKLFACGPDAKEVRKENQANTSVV
The assay can be described thus: Biophysical Ferroportin-Hepcidin Binding Assay (fluorescence polarization). Conditions: average of multiple measurements; 1 μM human Fpn, 20 nM TMR-hepcidin; read-out: FP IC50. The protocol:
This biophysical assay was developed to confirm inhibition of hepcidin binding to ferroportin (Fpn) more directly. Incubation of TMR-hepcidin with purified human Fpn isolated from Pichia pastoris yeast cells expressing human Fpn with a C-terminal FLAG affinity tag (Bonaccorsi di Patti, 2014) leads to increased fluorescence polarization (FP) of the TMR-hepcidin ligand. Small molecular weight Fpn inhibitors were tested for inhibition of binding of TMR-hepcidin to Fpn, as detected by dose-dependent decrease of the TMR FP signal, as described in detail below.
8 μl of serial dilutions of test compounds were added in duplicates to reach final Fpn and TMR-hepcidin concentrations of 1 μM and 20 nM, respectively. Plates were incubated for 90 minutes at room temperature and parallel (S) and perpendicular (P) fluorescence was measured in a Synergy H1 fluorescence reader (BioTek). FP values were calculated in mP according to the following formula.
A general note: Polarisation of emitted light reports the rotation of a fluorescent probe.

These results are taken from patent US10738041B2, “Ferroportin inhibitors” (Vifor (International) AG, priority 2015, dated 2020).

`O=C(NCCc1ccccn1)c1csc(CCNCc2nc3ccccc3[nH]2)n1` [Example 76]: the figures for the half-maximal inhibitory concentration (IC50) at ferroportin (Fpn) and on human Fpn were 0.34 µM and 5.08 µM, respectively.

`O=C(NCc1ncccc1F)c1cnn(CC2CCCN(Cc3nc4ccccc4[nH]3)C2)c1` (stereo not shown) [Example 153]: the IC50 (in general, the concentration that gives 50% inhibition) on human Fpn came to 57.8 µM. `CN(C)C(=O)c1csc(CCNCc2nc3ccccc3[nH]2)n1` [Example 22]: the IC50 is 17.2 µM at ferroportin (Fpn) and 14.2 µM at human Fpn. As to `O=C(NCc1ccccc1OC(F)F)c1csc(CCNCc2nc3ccccc3[nH]2)n1` [Example 74], the half-inhibitory concentration (IC50) on ferroportin (Fpn) was found to be 0.21 µM; on human Fpn, 0.451 µM. Taken in the same sequence, the figures for `Cn1cc(CNC(=O)c2csc(CCNCc3nc4ccccc4[nH]3)n2)cn1` [Example 91] were 2.07 µM and 12.1 µM. Taken in the same sequence, the figures for `O=C(NCc1ncccc1F)c1csc([C@H]2[C@@H]3CN(CCc4nc5ccccc5[nH]4)C[C@@H]32)n1` [Example 218] were 4.5 µM and 2.2 µM.

With `O=C(NCc1ncc[nH]1)c1csc(CCNCc2nc3ccccc3[nH]2)n1` [Example 95], the IC50 at ferroportin (Fpn) is 7.23 µM; on human Fpn it was 13 µM.

Consider `O=C(NCc1c(F)cccc1F)c1csc(CCNCc2nc3ccccc3[nH]2)n1` [Example 69], for which the IC50 on ferroportin (Fpn) stood at 0.26 µM; at human Fpn it was 1.51 µM. Taken in the same sequence, the figures for `CC1(c2nc(C(=O)NCc3ncccc3F)cs2)CN(CCc2nc3ccccc3[nH]2)C1` [Example 212] were 8.51 µM and 3.76 µM. Turning to `O=C(NCc1ccccc1)c1csc(CCNCc2nc3cc(O)ccc3[nH]2)n1` [Example 30], the IC50 on ferroportin (Fpn) worked out at 12.9 µM; on human Fpn, 2.33 µM. Regarding `O=C(NCc1ncccc1F)c1cnn(C2CCN(Cc3nc4ccccc4[nH]3)CC2)c1` [Example 150], at human Fpn, the IC50 is 73 µM. As for `CC(NC(=O)c1csc(CCNCc2nc3ccccc3[nH]2)n1)c1ccccc1` (stereo not shown) [Example 73], the IC50 on ferroportin (Fpn) was found to be 0.37 µM; at human Fpn, 1 µM.

Turning to `O=C(NCc1ccnc(N2CCOCC2)c1)c1csc(CCNCc2nc3ccccc3[nH]2)n1` [Example 96], the IC50 worked out at 2.97 µM at ferroportin (Fpn) and 7.29 µM at human Fpn. Taken in the same sequence, the figures for `Cn1c(CNCCc2nc(C(=O)NCc3ccccc3)cs2)nc2ccccc21` [Example 28] were 0.18 µM and 1.22 µM.

For `O=C(NCc1ncccc1F)c1cnn(CC2CN(CCc3nc4ccccc4[nH]3)C2)c1` [Example 192], the figures for the IC50 at ferroportin (Fpn) and at human Fpn were 13.6 µM and 49.3 µM, respectively. Consider `O=C(NCc1cccnc1F)c1csc(CCNCc2nc3ccccc3[nH]2)n1` [Example 103], for which the IC50 on ferroportin (Fpn) amounted to 2.37 µM; on human Fpn, 2.52 µM. The corresponding values for `O=C(NCc1ccc[nH]c1=O)c1csc(CCNCc2nc3ccccc3[nH]2)n1` [Example 83] are 0.096 µM and 1.05 µM.

For `O=C(NCc1ccccc1)c1csc(CCNCc2nc3cccnc3[nH]2)n1` [Example 33], the IC50 came to 3.62 µM at ferroportin (Fpn) and 17.2 µM at human Fpn. Taken in the same sequence, the figures for `O=C(NCc1ccccc1N1CCOCC1)c1csc(CCNCc2nc3ccccc3[nH]2)n1` [Example 63] were 0.61 µM and 0.846 µM. For the compound `O=C(NCc1ncccc1F)c1csc(CCNCCCc2nc3ccccc3[nH]2)n1` [Example 125], the IC50 at ferroportin (Fpn) came to 1.66 µM; on human Fpn, 3.7 µM. With `CN(Cc1ccccc1)C(=O)c1csc(CCNCc2nc3ccccc3[nH]2)n1` [Example 17], the values for the IC50 on ferroportin (Fpn) and at human Fpn were 6.4 µM and 3.53 µM, respectively. The corresponding values for `Cc1cnc(CNC(=O)c2nc(CCNCc3nc4ccccc4[nH]3)sc2Cl)nc1` [Example 178] are 3.64 µM and 1.92 µM. As to `O=C(CC(=O)NCc1ncccc1F)NCCNCc1nc2ccccc2[nH]1` [compound 149], the IC50 on ferroportin (Fpn) was found to be 6.25 µM; at human Fpn, 17 µM. The corresponding values for `O=C(NCc1ccccc1)c1csc(CCNCc2ccccn2)n1` [Example 11] are 20.9 µM and 7.83 µM. Turning to `C=C(C)c1sc(CCNCc2nc3ccccc3[nH]2)nc1C(=O)NCc1ncccc1F` [Example 177], the IC50 came to 4.2 µM at ferroportin (Fpn) and 15.4 µM on human Fpn.

In the case of `Cc1c(C(=O)NCc2ncccc2F)ncn1CCNCCc1nc2ccccc2[nH]1` [Example 219], the values for the IC50 on ferroportin (Fpn) and on human Fpn were 2.43 µM and 1.1 µM, respectively.

As for `O=C(NCc1cccs1)c1csc(CCNCc2nc3ccccc3[nH]2)n1` [Example 16], the IC50 on ferroportin (Fpn) turned out to be 0.9 µM; on human Fpn, 1.72 µM. As to `O=C1N[C@@H](CCN2CCCc3nc4ccccc4n3C2)C(=O)N1CCc1ncccc1F` [Example 240], the half-maximal inhibitory concentration (IC50) on ferroportin (Fpn) is 2.45 µM; on human Fpn it was 2.67 µM.

As to `O=C(NCc1ncccc1CO)c1csc(CCNCc2nc3ccccc3[nH]2)n1` [Example 110], the values for the IC50 on ferroportin (Fpn) and at human Fpn were 1.7 µM and 3.42 µM, respectively. Regarding `COc1cc(CNC(=O)c2csc(CCNCc3nc4ccccc4[nH]3)n2)ccn1` [Example 104], the half-maximal inhibitory concentration (IC50) was determined as 0.9 µM at ferroportin (Fpn) and 1.76 µM on human Fpn. With `CN(C(=O)c1csc(CCNCc2nc3ccccc3[nH]2)n1)c1ccccc1` [Example 19], the IC50 on ferroportin (Fpn) was found to be 10 µM; at human Fpn, 10.2 µM. The corresponding values for `O=C(NCc1ccccc1)c1csc(CCNCc2ccc(F)cn2)n1` [Example 6] are 12.7 µM and 48.6 µM.

Regarding `O=C(NCc1ccccc1)c1csc(CCNCc2nc3cc(F)ccc3[nH]2)n1` [Example 31], the IC50 at ferroportin (Fpn) came to 1.1 µM; at human Fpn, 0.94 µM. Taken in the same sequence, the figures for `O=C(CCNCc1nc2ccccc2[nH]1)NCC(=O)NCc1ncccc1F` [compound 172] were 3.93 µM and 3.4 µM.

On to `O=C(NC1CCc2cccnc21)c1cnn(C2CN(CCc3nc4ccccc4[nH]3)C2)c1` (stereo not shown) [Example 191], for which the IC50 at ferroportin (Fpn) amounted to 0.33 µM.
